Reference: US6569411B2, “Serine carbonates” (The Gillette Company, priority 1999, dated 2003)

Tests used:
[1] = system: Staphylococcus haemolyticus cells; assay: Sniff assay: malodor inhibition and fragrance production with axillary malodor precursors; assay type: cell-based; conditions: 0.1% compound with malodor precursors and cells at 37° C., seven judges, 8-point scale
Experimental: The serine carbonate 2-Amino-3-(1,5,7-trimethyl-octyl-oxycarbonyloxy)-propionic acid has been tested in a sniff assay to determine whether, in the presence of Staphylococcus haemolyticus and axillary malodor precursors, production of malodor is inhibited and production of fragrance can be detected. For this assay, axillary washes, which contain malodor precursors, were dried into vials at a concentration sufficient to produce a strong axillary malodor when incubated with Staphylococcus haemolyticus cells. Vials were incubated at 37° C. with Staphylococcus haemolyticus cells. The vials contained […] with 0.1% 2-amino-3-(1,5,7-trimethyl-octyl-oxycarbonyloxy)-propionic acid. Control precursor vials were not incubated with the cells. The mixtures were extracted with chloroform and about 10 μl of the chloroform layers were spotted on bibulous paper. After the chloroform had evaporated, the papers were evaluated for malodor level and fragrance level. Evaluations were done by seven judges who rated malodor or fragrance strength on an 8-point scale from 0 (none) to 7 (extremely strong). Results were calculated as percent change from control malodor or precursor fragrance score.

[2] = system: Staphylococcus haemolyticus cells; assay: Gas chromatography assay of cleavage of serine carbonates by axilla bacteria; assay type: cell-based; conditions: 350 nmol of compound, 16-18 hours at 37° C.
Experimental: This example is meant to illustrate, not to limit, the invention.
The synthesized amino acid derivatives were tested for their ability to be cleaved by bacteria normally found in human axilla. A 100 ml culture of Staphylococcus haemolyticus was grown overnight at 37° C. in TSB medium.
The cells were pelleted by centrifuging the culture at 5,000 rpm for 12 minutes, and the pelleted cells were resuspended in sterile saline. The cells were again pelleted and resuspended in sterile saline. After pelleting the cells once again, the cells were weighed and resuspended in sterile assay buffer (50 mM phosphate, pH 6.8, 1% glucose/dextran). The final concentration of cells was 0.05 g cells/ml (for the gas chromatography (GC) assay). These cell suspensions can be stored at 4° C.
The serine carbonate was prepared as stock solution at a concentration of approximately 5 mg/ml in 50 mM potassium phosphate buffer (pH 6.8). If necessary, the pH can be adjusted to 6.8-7.0 with 1N NaOH. The serine carbonate stock solution was sterilized by filtering through 0.22 μm filters.
For a negative control, the cells were incubated with 100 μl sterile phosphate buffer. […] The samples then were extracted into 100 μl chloroform and analyzed by gas chromatography.

In the case of CC(C)CCCC(C)C1CCC2C3CC=C4CC(OC(=O)OCC(N)C(=O)O)CCC4(C)C3CCC12C (centres unmarked), the melting point is reported as 147 °C.

With CC(C)CC(C)CCCC(C)OC(=O)OCC(N)C(=O)O (centres unmarked) [Example 3a, 2-Amino-3-(1,5,7-trimethyl-octyloxycarbonyloxy)-propionic acid] the Malodor drop ([1]; percent change from control malodor score) was 50% and the Fragrance increase ([1]; percent change from control precursor fragrance score) was 30%.

For CC(CCOC(=O)OCC(N)C(=O)O)CCc1ccccc1 (centres unmarked) [Example 3e, 2-Amino-3-(3-methyl-5-phenyl-pentyloxycarbonyloxy)-propionic acid], the “precursor cleaved by the cells” value [2] was 40% and the “3-methyl-5-phenyl-pentanol produced by the cell incubation” value ([2]; pH 6.8, GC analysis) was 140 nmols.
